Values after ≈ are worked out from the molar mass of the structure shown. Active and inactive are the calls of the source. The calls are words filed in the database; no cut-off is given here.
Legend:
Bacillus anthracis [1] = assay: Antimicrobial activity against Bacillus anthracis Sterne 411A2 harboring GyrA Ser85Leu and parC Ser81Phe mutant gene by broth microdilution method; type: functional, Bacillus anthracis str. Sterne
Bacillus anthracis [2] = assay: Antimicrobial activity against Bacillus anthracis A0462 by broth microdilution method; type: functional
Bacillus anthracis [3] = assay: Antimicrobial activity against Bacillus anthracis Sterne 402 harboring gyrA Ser85Leu mutant gene by broth microdilution method; type: functional, Bacillus anthracis str. Sterne
Bacillus anthracis [4] = assay: Antimicrobial activity against Bacillus anthracis A0248 by broth microdilution method; type: functional
Bacillus anthracis [5] = assay: Antimicrobial activity against Bacillus anthracis Sterne 411A2 assessed as growth inhibition at 16 ug/ml after 4 hrs relative to control; type: functional, organism-based; conditions: Bacillus anthracis str. Sterne
Bacillus anthracis [6] = assay: Antimicrobial activity against Bacillus anthracis A0465 by broth microdilution method; type: functional
Bacillus anthracis [7] = assay: Antimicrobial activity against Bacillus anthracis A0193 by broth microdilution method; type: functional
Bacillus anthracis [8] = assay: Antimicrobial activity against Bacillus anthracis A03768 by broth microdilution method; type: functional
Bacillus anthracis [9] = assay: Antimicrobial activity against Bacillus anthracis A0293 by broth microdilution method; type: functional
Bacillus anthracis [10] = assay: Antimicrobial activity against Bacillus anthracis A0188 by broth microdilution method; type: functional
Bacillus anthracis [11] = assay: Antimicrobial activity against Bacillus anthracis A0264 by broth microdilution method; type: functional
Bacillus anthracis [12] = assay: Antimicrobial activity against tetracycline-nonsusceptible Bacillus anthracis Sterne S1028 by broth microdilution method; type: functional, Bacillus anthracis str. Sterne
Bacillus anthracis [13] = assay: Antimicrobial activity against Bacillus anthracis A0149 by broth microdilution method; type: functional
Bacillus anthracis [14] = assay: Antimicrobial activity against Bacillus anthracis A0488 by broth microdilution method; type: functional
Bacillus anthracis [15] = assay: Antimicrobial activity against Bacillus anthracis A0102 by broth microdilution method; type: functional
Bacillus anthracis [16] = assay: Antimicrobial activity against Bacillus anthracis A0419 by broth microdilution method; type: functional
Bacillus anthracis [17] = assay: Antimicrobial activity against pXO1-positive and pXO2 negative Bacillus anthracis 34F2 by broth microdilution method; type: functional
Bacillus anthracis [18] = assay: Antimicrobial activity against Bacillus anthracis 240 by broth microdilution method; type: functional

Row | Compound | MIC (Bacillus anthracis [1]) | MIC (Bacillus anthracis [2]) [µg/mL] | MIC (Bacillus anthracis [3]) | MIC (Bacillus anthracis [4]) [µg/mL] | inhibition (Bacillus anthracis [5]) | MIC (Bacillus anthracis [6]) [µg/mL] | MIC (Bacillus anthracis [7]) [µg/mL] | MIC (Bacillus anthracis [8]) [µg/mL] | MIC (Bacillus anthracis [9]) [µg/mL] | MIC (Bacillus anthracis [10]) [µg/mL] | MIC (Bacillus anthracis [11]) [µg/mL] | MIC (Bacillus anthracis [12]) [µg/mL] | MIC (Bacillus anthracis [13]) [µg/mL] | MIC (Bacillus anthracis [14]) [µg/mL] | MIC (Bacillus anthracis [15]) [µg/mL] | MIC (Bacillus anthracis [16]) [µg/mL] | MIC (Bacillus anthracis [17]) [µg/mL] | MIC (Bacillus anthracis [18]) [µg/mL]
1 | O=C(O)c1cn(C2CC2)c2cc(N3CCNCC3)c(F)cc2c1=O [CIPROFLOXACIN] | >16 µg/mL | 0.12 (≈ 0.362 µM) | 1 µg/mL (≈ 3.02 µM) | 0.12 (≈ 0.362 µM) | inactive | 0.03 (≈ 0.0905 µM) | 0.015 (≈ 0.0453 µM) | 0.12 (≈ 0.362 µM) | – | – | – | – | – | – | – | – | – | –
2 | C[C@H]1c2cccc(O)c2C(=O)C2=C(O)[C@]3(O)C(=O)C(C(N)=O)=C(O)[C@@H](N(C)C)[C@@H]3[C@@H](O)[C@@H]21.O [DOXYCYCLINE] | <=0.06 ug ml-1 | ≤ 0.06 | <=0.06 ug ml-1 | ≤ 0.06 | – | ≤ 0.06 | ≤ 0.06 | ≤ 0.06 | ≤ 0.06 | ≤ 0.06 | ≤ 0.06 | 1 | ≤ 0.06 | ≤ 0.06 | ≤ 0.06 | ≤ 0.06 | ≤ 0.06 | ≤ 0.06

— ChEMBL document CHEMBL1275243 (2010)
